The target of one data set is T1, active TOPK (Homo sapiens, UniProt Q96KB5).
T1 construct: purchased SignalChem (Richmond, BC, Canada)
T1 sequence (Q96KB5 1-322): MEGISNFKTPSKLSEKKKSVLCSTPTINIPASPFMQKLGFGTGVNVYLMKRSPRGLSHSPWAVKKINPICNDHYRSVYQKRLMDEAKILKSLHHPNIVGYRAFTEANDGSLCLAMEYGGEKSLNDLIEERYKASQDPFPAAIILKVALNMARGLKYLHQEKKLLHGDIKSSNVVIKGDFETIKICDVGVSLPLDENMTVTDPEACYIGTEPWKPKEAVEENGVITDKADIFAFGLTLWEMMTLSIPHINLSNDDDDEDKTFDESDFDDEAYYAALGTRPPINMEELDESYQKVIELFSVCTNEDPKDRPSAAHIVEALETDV
As to the kind of experiment: ATP competition pull-down assay with compound 1-conjugated Sepharose 4B beads. In kind it is binding. The settings on record: ATP 0, 10 or 100 μM; active TOPK 200 ng. The method, then: Active TOPK (200 ng) was incubated with different concentrations of ATP (0, 10 or 100 μM) and then mixed with compound 1-conjugated Sepharose 4B beads or Sepharose 4B beads. Proteins were pulled down and analyzed by Western blot. Data are representative of 3 independent experiments that gave similar results. FIGS. 2C and 2D show compound 1 binds to either TOPK (2C) or MEK1/2 (2D) ex vivo. Lysates from HaCaT cells (500 μg) were incubated with compound 1-conjugated Sepharose 4B beads or Sepharose 4B beads alone and the pulled-down proteins were analyzed by Western blot. Data are representative of 3 independent experiments that gave similar results. FIGS. 2E and 2F show compound 1 inhibits TOPK kinase (2E) activity but not MEK1 kinase (2F) activity in vitro. Active TOPK (200 ng) was mixed with compound 1 (0, 0.5, 1, 3, or 5 μM) or HI-032 (TOPK inhibitor, 10 μM) and then incubated with a [γ-^32P] ATP mixture. Similarly, MEK1 (200 ng) was mixed with compound 1 (0, 0.5, 1, 3, 5, or 10 μM) or PD098059 (MEK1 inhibitor, 5 μM) and then incubated with a [γ-^32P] ATP mixture. For 2E and 2F, the results are visualized by autoradiography and Coomassie blue staining serves as a loading control. Data are representative of 3 independent experiments that gave similar results. […]

Data set [1] deals with normal human dermal fibroblasts (NHDF). Nature of the data set: MTS assay for cytotoxicity. In kind it is cell-based. To be noted: 24 or 48 h, concentrations less than 10 μM. The method, then: (§1) Cells (1×10^4 cells/well) were seeded into 96-well plates. After an overnight incubation, cells were treated with different concentrations of compound 1 and incubated for 24 or 48 h. Then 20 μL of the CellTiter 96 Aqueous One Solution (Promega, Madison, Wis.) were added to each well and cells were incubated for an additional 1 h at 37° C. Absorbance was measured at an optical density of 492 and 690 nm using the Thermo Multiskan plate-reader (Thermo Fisher Scientific, Waltham, Mass.).
(§2) Cells (1×10^4 cells/well) were seeded into 96-well plates for determining cytotoxicity. After an overnight incubation, cells were treated with different concentrations of compound 1 and incubated for 24 or 48 h. Then 20 μL of the CellTiter 96 Aqueous One Solution (Promega Corporation, Madison, Wis.) were added to each well and cells were incubated for an additional 1 h at 37° C. Absorbance was measured at an optical density of 492 and 690 nm using the Thermo Multiskan plate-reader (Thermo Fisher Scientific, Waltham, Mass.).

The test system of data set [2] is JB6 P+ mouse epidermal skin cells. Nature of the data set: MTS assay for cytotoxicity. It counts as cell-based. To be noted: 24 or 48 h, concentrations less than 10 μM. How it is done:
as §1, §2

Molecules are shown by their SMILES.

On to `O=C1Nc2ccc(C34CC5CC(CC(C5)C3)C4)cc2C1=NO` [compound 1, 5-(adamantan-1-yl)-3-(hydroxyimino)indolin-2-one], for which the “binding ability with TOPK in presence of ATP” value at active TOPK is “altered in the presence of ATP”. Further, the cytotoxicity result in data set [1] and in data set [2] was “no cytotoxicity” each time.

These data come from patent publication US10487054B2, “Therapeutic compounds” (REGENTS OF THE UNIVERSITY OF MINNESOTA, priority 2017, dated 2019).
